From patent US20200254065A1, “LONG-ACTING GLP-2 ANALOGS” (OPKO Biologics Ltd., priority 2019, published 2020) come the findings set out here.

Assay [1] deals with intestine epithelium (crypts plus villi). Description: Crypts plus villi length, histopathology of small intestine. The class given is in vivo, SD rats. Particulars: for Percent increase of Crypts plus Villi length over vehicle (FIG. 1): injected once at 2 mg/kg peptide dose, 6th day. Here is the method: In addition to PEG30-FMS-V4 and PEG30-Fmoc-V4 that have been pharmacology evaluated by small intestinal weight evaluation (As shown in Example 5), four other reversible PEGylated variant 4 (“V4”) conjugates and two reversible linker-V4 conjugates were synthesized. All the above were injected to 6 normal SD rats/group once at 2 mg/kg (peptide dose), while on the 6th day, animals were scarified, and the small intestine was weighted followed by histopathology evaluation. […] Therefore, slices from three areas of the intestine (duodenum, jejunum and ilium) were stained with hematoxylin and eosin and at least 7 Crypts+Villi length/slice were measured. The averaged Villi+Crypt length of each treatment group (n=6) was compared to the vehicle group (negative control) and calculated as percentage increase over vehicle. […]
An additional study to evaluate the efficacy and the longevity of V4 and Cys-FMS-V4 was conducted (Study reference 15204) in which the animals were sacrificed on Days 6 (N=6), 10 (N=4) and 14 (N=4). This experiment measured the pharmacological response compared to the commercially approved SBS treatment drug Gattex. In addition, two new conjugates were tested by conjugating V4 to reduced OSu-linker and Cys-FMS-V4 purified from resin. The animals were injected with a single SC injection at Day 1 with 2 mg/kg peptide content of V4, Cys-FMS-V4, FMS-OSu-V4, Apraglutide and Glepaglutide while Gattex was SC injected daily at 2.5 mg/kg peptide content. […]

Assay [2] deals with small intestine. Description: Intestine weight model in rats. The class given is in vivo, SD rats. Particulars: for Avg. small intestine weight (gr) / Small intestine weight increase over vehicle (%): normal SD rats, injected once at 2 mg/kg peptide dose, 6th day; for Small intestine weight increase over vehicle (%): MAL-FMS-V4 compared to Vehicle 2. Here is the method:
In the pharmacology study, the conjugates were injected subcutaneously twice, on days 1 and 3 at 1 mg/kg (peptide dose) and intestine weight was performed on day 6. In addition to the PEGylated conjugates, GLP-2-Gly2 was injected at the same dose and regimen for comparison. The average of the intestine weight of each group was compared to that of the vehicle group.
In a different study, several of the PEGylated teduglutide were injected as a single dose at 1 mg/kg and the intestine weight performed on day 6.
Pharmacology and pharmacokinetic studies were performed with the most promising GLP-2 variants to evaluate their efficacy and longevity, respectively. The intestine weight model in rats was conducted to evaluate efficacy, by measuring percent increase of the intestine weight of treated animals over the vehicle group. In this study, the peptides were injected twice, on days 1 and 3 at 1 mg/kg and the intestine weight was conducted on day 6.
PEG20-FMS-V6, PEG20-Fmoc-V6 and PEG40-FMS-V6 were injected once at 1 mg/kg dose on day 1, while group D was also injected twice on days 1 & 3 at 1 mg/kg. The intestine weight was performed on day 6.
Three different reversible PEGylated GLP-2 variants using mutated peptide #4 were injected at 2 mg/kg (peptide dose), once every 6 days for 12 days. On the 12th day the intestine was weighted and compared to the control group. PEG30-FMS-V4 was injected at 0.5 mg/kg as well to evaluate the efficacy dose range.
In addition to PEG30-FMS-V4 and PEG30-Fmoc-V4 that have been pharmacology evaluated by small intestinal weight evaluation (As shown in Example 5), four other reversible PEGylated variant 4 (“V4”) conjugates and two reversible linker-V4 conjugates were synthesized. All the above were injected to 6 normal SD rats/group once at 2 mg/kg (peptide dose), while on the 6th day, animals were scarified, and the small intestine was weighted followed by histopathology evaluation. […] Therefore, slices from three areas of the intestine (duodenum, jejunum and ilium) were stained with hematoxylin and eosin and at least 7 Crypts+Villi length/slice were measured. The averaged Villi+Crypt length of each treatment group (n=6) was compared to the vehicle group (negative control) and calculated as percentage increase over vehicle.
Additional studies were conducted to evaluate the efficacy of the V4 peptide and the reversible MAL-FMS-V4. The long acting effect of V4 and the conjugates were evaluated at Day 6 and Day 10 following treatment (Study reference 15203). All test groups (n=9) were injected SC with 2 mg/kg peptide content at Day 1. At Days 6 and 10, animals were sacrificed and the small intestine underwent histopathology evaluation (6 animals for Day 6, 3 animals for Day 10). FIGS. 12 and 13 show the pharmacology effect of different V4 conjugates and Apraglutide and Glepaglutide as measured by the percent increase of small intestine weight and crypts plus villi length over vehicle, respectively.
To further evaluate the pharmacology efficacy of V4 and Cys-FMS-V4, an experiment was performed to test their acute and prolonged effect on the small intestine (Study reference 15205). In addition, V4 and Cys-FMS-V4 were administrated as a single SC injection on Day 1 at 3 different doses (0.5, 2.0 or 8.0 mg/kg peptide content, 6 rats per group) to assess the dose dependence effect. The pharmacological effect on small intestine weight and villi plus crypts length was measured at Days 3, 7 and 14, and the results are presented in FIGS. 15 and 16. […] It should be noted that this acute response was higher for V4 compared to Cys-FMS-V4 at all 3 dose levels.

Assay [3] deals with T1, GLP-2 receptor (UniProt O95838 1-553, limits assumed).
T1 sequence (looked up): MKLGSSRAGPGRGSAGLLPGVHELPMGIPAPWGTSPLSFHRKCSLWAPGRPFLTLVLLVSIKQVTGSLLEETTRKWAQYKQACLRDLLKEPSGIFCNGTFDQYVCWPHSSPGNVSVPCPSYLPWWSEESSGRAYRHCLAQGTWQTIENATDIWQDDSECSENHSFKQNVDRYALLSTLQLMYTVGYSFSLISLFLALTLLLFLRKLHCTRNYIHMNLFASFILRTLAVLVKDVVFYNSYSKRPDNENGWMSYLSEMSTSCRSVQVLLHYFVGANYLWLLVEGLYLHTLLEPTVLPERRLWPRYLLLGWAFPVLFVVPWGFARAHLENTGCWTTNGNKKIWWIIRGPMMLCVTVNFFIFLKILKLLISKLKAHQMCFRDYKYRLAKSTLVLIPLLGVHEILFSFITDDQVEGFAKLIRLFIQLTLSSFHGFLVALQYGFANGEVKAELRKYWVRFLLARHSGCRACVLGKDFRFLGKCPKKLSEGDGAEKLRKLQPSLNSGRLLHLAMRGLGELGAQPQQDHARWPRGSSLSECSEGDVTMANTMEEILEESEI
Description: cell-based or functional assay.

Where [4] appears, read: 2 mg/kg peptide dose once every 6 days for 12 days, weighed on 12th day.

Marks after values point to notes of the source that are not given here. Square brackets hold non-standard residues; d marks the D form. Ends that are not written are not given here. Nle = CCCC[C@H](N)C(=O)O

Turning to “PEG30-Fmoc-V4 (HGEGSFSDE[Nle]NTILDLLAARDFINWLIQTKITD-NH2; also: PEG30-Fmoc conjugate, place not given here)”, the “Percent increase of Crypts plus Villi length over vehicle (FIG. 1)” value (“Percent increase … (FIG. 1)” for short) in assay [1] was “better effect on the intestine epithelium than the V4 peptide”. In assay [2] (setting [4]), the “Average Intestine weight (gr)” value is listed as 7.8 gr and the “Increase of intestine weight over vehicle (%)” value is 29%. In assay [2], the “Avg. small intestine weight (gr)” value is given as 7.0 gr and the “Small intestine weight increase over vehicle (%)” value was 36.0** %.
For “MAL-FMS-V4 (HGEGSFSDE[Nle]NTILDLLAARDFINWLIQTKITD-NH2; also: MAL-FMS conjugate, place not given here)”, in assay [1] (Study 15201, 0.5 and 2 mg/kg peptide dose once, 6 days after injection), the “Percent increase of Crypts+Villi length over vehicle (FIG. 3)” value is “dose dependent pharmacology effect on the intestine epithelium”. In addition, the “Percent increase … (FIG. 1)” value in assay [1] is given as “showed the most pronounce effect on the intestine epithelium”. In addition, the “Avg. small intestine weight (gr)” value in assay [2] is recorded as 7.0 gr.
For “PEG30-MeOF-V4 (HGEGSFSDE[Nle]NTILDLLAARDFINWLIQTKITD-NH2; also: PEG30-MeOF conjugate, place not given here)”, the “Percent increase … (FIG. 1)” value in assay [1] is given as “better effect on the intestine epithelium than the V4 peptide”. In assay [2], the “Avg. small intestine weight (gr)” value was 7.0 gr and the “Small intestine weight increase over vehicle (%)” value is given as 39.0** %.

B1: GLP-2 Variant #5 (peptide)
peptide: H-HGEGSFSDE[Nle]NTILDYLAARDFINWLIQTKITD-NH2
SMILES: CCCC[C@H](NC(=O)[C@H](CCC(=O)O)NC(=O)[C@H](CC(=O)O)NC(=O)[C@H](CO)NC(=O)[C@H](Cc1ccccc1)NC(=O)[C@H](CO)NC(=O)CNC(=O)[C@H](CCC(=O)O)NC(=O)CNC(=O)[C@@H](N)Cc1c[nH]cn1)C(=O)N[C@@H](CC(N)=O)C(=O)N[C@H](C(=O)N[C@H](C(=O)N[C@@H](CC(C)C)C(=O)N[C@@H](CC(=O)O)C(=O)N[C@@H](Cc1ccc(O)cc1)C(=O)N[C@@H](CC(C)C)C(=O)N[C@@H](C)C(=O)N[C@@H](C)C(=O)N[C@@H](CCCNC(=N)N)C(=O)N[C@@H](CC(=O)O)C(=O)N[C@@H](Cc1ccccc1)C(=O)N[C@H](C(=O)N[C@@H](CC(N)=O)C(=O)N[C@@H](Cc1c[nH]c2ccccc12)C(=O)N[C@@H](CC(C)C)C(=O)N[C@H](C(=O)N[C@@H](CCC(N)=O)C(=O)N[C@H](C(=O)N[C@@H](CCCCN)C(=O)N[C@H](C(=O)N[C@H](C(=O)N[C@@H](CC(=O)O)C(N)=O)[C@@H](C)O)[C@@H](C)CC)[C@@H](C)O)[C@@H](C)CC)[C@@H](C)CC)[C@@H](C)CC)[C@@H](C)O
With B1, in assay [3], the “EC50 Ratio to Teduglutide, CBA” value was 2.4 fold and the “EC50 [nM], Cell Based Assay (CBA), cells overexpressing the GLP-2 receptor” value (from here on “EC50 [nM], Cell Based Assay (CBA)”) was 13.6 nM.

B2: GLP-2 Variant #7 (peptide)
peptide: H-HGEGSFSDE[Nle]NTILDYLAARDFINWLIQTKITD-OH
SMILES: CCCC[C@H](NC(=O)[C@H](CCC(=O)O)NC(=O)[C@H](CC(=O)O)NC(=O)[C@H](CO)NC(=O)[C@H](Cc1ccccc1)NC(=O)[C@H](CO)NC(=O)CNC(=O)[C@H](CCC(=O)O)NC(=O)CNC(=O)[C@@H](N)Cc1c[nH]cn1)C(=O)N[C@@H](CC(N)=O)C(=O)N[C@H](C(=O)N[C@H](C(=O)N[C@@H](CC(C)C)C(=O)N[C@@H](CC(=O)O)C(=O)N[C@@H](Cc1ccc(O)cc1)C(=O)N[C@@H](CC(C)C)C(=O)N[C@@H](C)C(=O)N[C@@H](C)C(=O)N[C@@H](CCCNC(=N)N)C(=O)N[C@@H](CC(=O)O)C(=O)N[C@@H](Cc1ccccc1)C(=O)N[C@H](C(=O)N[C@@H](CC(N)=O)C(=O)N[C@@H](Cc1c[nH]c2ccccc12)C(=O)N[C@@H](CC(C)C)C(=O)N[C@H](C(=O)N[C@@H](CCC(N)=O)C(=O)N[C@H](C(=O)N[C@@H](CCCCN)C(=O)N[C@H](C(=O)N[C@H](C(=O)N[C@@H](CC(=O)O)C(=O)O)[C@@H](C)O)[C@@H](C)CC)[C@@H](C)O)[C@@H](C)CC)[C@@H](C)CC)[C@@H](C)CC)[C@@H](C)O
Regarding B2, in assay [3], the “EC50 Ratio to Teduglutide, CBA” value is 3 fold and the “EC50 [nM], Cell Based Assay (CBA)” value turned out to be 17.2 nM.

B3: GLP-2 Variant #3 (peptide)
peptide: H-HGEGSFSDE[Nle][dH]TILDNLAARDFINWLIQTKITD-NH2
SMILES: CCCC[C@H](NC(=O)[C@H](CCC(=O)O)NC(=O)[C@H](CC(=O)O)NC(=O)[C@H](CO)NC(=O)[C@H](Cc1ccccc1)NC(=O)[C@H](CO)NC(=O)CNC(=O)[C@H](CCC(=O)O)NC(=O)CNC(=O)[C@@H](N)Cc1c[nH]cn1)C(=O)N[C@H](Cc1c[nH]cn1)C(=O)N[C@H](C(=O)N[C@H](C(=O)N[C@@H](CC(C)C)C(=O)N[C@@H](CC(=O)O)C(=O)N[C@@H](CC(N)=O)C(=O)N[C@@H](CC(C)C)C(=O)N[C@@H](C)C(=O)N[C@@H](C)C(=O)N[C@@H](CCCNC(=N)N)C(=O)N[C@@H](CC(=O)O)C(=O)N[C@@H](Cc1ccccc1)C(=O)N[C@H](C(=O)N[C@@H](CC(N)=O)C(=O)N[C@@H](Cc1c[nH]c2ccccc12)C(=O)N[C@@H](CC(C)C)C(=O)N[C@H](C(=O)N[C@@H](CCC(N)=O)C(=O)N[C@H](C(=O)N[C@@H](CCCCN)C(=O)N[C@H](C(=O)N[C@H](C(=O)N[C@@H](CC(=O)O)C(N)=O)[C@@H](C)O)[C@@H](C)CC)[C@@H](C)O)[C@@H](C)CC)[C@@H](C)CC)[C@@H](C)CC)[C@@H](C)O
B3: in assay [3], the “EC50 Ratio to Teduglutide, CBA” value was determined as 2.5 fold and the “EC50 [nM], Cell Based Assay (CBA)” value worked out at 14.2 nM.
